In patent US12495798B2, “Nicotinamide compound and herbicidal composition comprising compound” (KOREA RESEARCH INSTITUTE OF CHEMICAL TECHNOLOGY, priority 2019, dated 2025):

Key:
Format in all cases: in vivo
barnyard grass = test: Herbicidal activity test against upland field weeds (soil treatment test); design: key to Soil treatment herbicidal activity, barnyard grass: 0 (no control); 100 (complete control); details: 50 g ai/ha, scale 0 (no control) to 100 (complete control)
Summary of the method: (§1)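 Weed control scored visually on a 0 (none) to 100 (complete) scale versus untreated pots at 14 or 21 days in greenhouse (30±5 °C, 14 h light). Test compounds, 50 or 75 g a.i./ha in 50% acetone/0.1% Tween-20, hand-sprayed onto soil one day post-sowing.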

indian jointvetch = test: as above; design: key to Soil treatment herbicidal activity, Indian jointvetch: 0 (no control); 100 (complete control); details: 50 g ai/ha, scale 0 (no control) to 100 (complete control)
Summary of the method: as §1

quack grass = test: Herbicidal activity test against upland field weeds (foliar treatment test); design: key to Foliar treatment herbicidal activity, quack grass: 0 (no control); 100 (complete control); details: 50 g ai/ha, scale 0-100
Summary of the method: (§2)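 Visual 0–100 control ratings relative to untreated plants, taken 14 (or 21) days after spraying foliage at 50 or 75 g a.i./ha. Spray solution: 50% acetone with 0.1% Tween-20; plants kept in greenhouse at 30±5 °C, 14 h light/10 h dark.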

bindweed [1] = test: Herbicidal activity test against upland field weeds (soil treatment test); design: key to Soil treatment herbicidal activity, Bindweed: 0 (no control); 100 (complete control); details: 50 g ai/ha, scale 0 (no control) to 100 (complete control)
Summary of the method: as §1

soybean = test: Phytotoxicity test for field crops (soil treatment test); design: key: 0 (no harm); 9 (complete withered)
Summary of the method: (§3)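 Crops sown in sterilized horticultural soil (pH 6.1, organic material 1.0%) with mixed fertilizer (N:P:K=17:21:17); one day after sowing, soil sprayed with compound in 33% acetone/0.1% Tween-20 at 19˜300 g a.i./ha. Greenhouse at 30±5° C, 14/10 h light/dark; injury scored visually 0–9 versus untreated control at 10 and 20 days.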

corn = test: as above; design: key: 0 (no harm); 9 (complete withered)
Summary of the method: as §3

rice = test: as above; design: key: 0 (no harm); 9 (complete withered)
Summary of the method: as §3

wheat = test: as above; design: key: 0 (no harm); 9 (complete withered)
Summary of the method: as §3

cotton = test: as above; design: key: 0 (no harm); 9 (complete withered)
Summary of the method: as §3

crabgrass [2] = test: Herbicidal activity test against upland field weeds (foliar treatment test); design: key to Foliar treatment herbicidal activity, Crabgrass: 0 (no control); 100 (complete control); details: 50 g ai/ha, scale 0-100; for pest or weed control at 50 g/ha: Digitaria sanguinalis
Summary of the method: as §2

velvetleaf = test: as above; design: key to Foliar treatment herbicidal activity, velvet leaf: 0 (no control); 100 (complete control); details: 50 g ai/ha; for pest or weed control at 50 g/ha: Abutilon theophrasti, scale 0-100, read-out: Foliar treatment herbicidal activity, velvet leaf; for Foliar treatment herbicidal activity, velvet leaf: scale 0-100
Summary of the method: as §2

crabgrass [3] = test: Herbicidal activity test against upland field weeds (soil treatment test); design: key to Soil treatment herbicidal activity, Crabgrass: 0 (no control); 100 (complete control); details: 50 g ai/ha, scale 0 (no control) to 100 (complete control)
Summary of the method: as §1

bindweed [4] = test: Herbicidal activity test against upland field weeds (foliar treatment test); design: key to Foliar treatment herbicidal activity, Bindweed: 0 (no control); 100 (complete control); details: 50 g ai/ha, scale 0-100
Summary of the method: as §2

[5] = 50 g ai/ha, Soybean (20 days after treatment)
[6] = 100 g ai/ha, Soybean (20 days after treatment)
[7] = 50 g ai/ha, Corn (10 days after treatment)
[8] = 50 g ai/ha, Corn (20 days after treatment)
[9] = 100 g ai/ha, Corn (10 days after treatment)
[10] = 100 g ai/ha, Corn (20 days after treatment)
[11] = 50 g ai/ha, Rice (10 days after treatment)
[12] = 50 g ai/ha, Rice (20 days after treatment)
[13] = 100 g ai/ha, Rice (10 days after treatment)
[14] = 100 g ai/ha, Rice (20 days after treatment)
[15] = 50 g ai/ha, Wheat (10 days after treatment)
[16] = 50 g ai/ha, Wheat (20 days after treatment)
[17] = 100 g ai/ha, Wheat (10 days after treatment)
[18] = 100 g ai/ha, Wheat (20 days after treatment)
[19] = 50 g ai/ha, Cotton (10 days after treatment)
[20] = 50 g ai/ha, Cotton (20 days after treatment)
[21] = 100 g ai/ha, Cotton (10 days after treatment)
[22] = 100 g ai/ha, Cotton (20 days after treatment)
[23] = 50 g ai/ha, Soybean (10 days after treatment)
[24] = 100 g ai/ha, Soybean (10 days after treatment)

Compound | Soil treatment herbicidal activity, barnyard grass (barnyard grass) | Soil treatment herbicidal activity, Indian jointvetch (indian jointvetch) | Foliar treatment herbicidal activity, quack grass (quack grass) | Soil treatment phytotoxicity, Soybean (soybean; [5]) | Soil treatment phytotoxicity, Soybean (soybean; [6]) | Soil treatment phytotoxicity, Corn (corn; [7]) | Soil treatment phytotoxicity, Corn (corn; [8]) | Soil treatment phytotoxicity, Corn (corn; [9]) | Soil treatment phytotoxicity, Corn (corn; [10]) | Soil treatment phytotoxicity, Rice (rice; [11]) | Soil treatment phytotoxicity, Rice (rice; [12]) | Soil treatment phytotoxicity, Rice (rice; [13]) | Soil treatment phytotoxicity, Rice (rice; [14]) | Soil treatment phytotoxicity, Wheat (wheat; [15]) | Soil treatment phytotoxicity, Wheat (wheat; [17]) | Soil treatment phytotoxicity, Wheat (wheat; [18]) | Soil treatment phytotoxicity, Cotton (cotton; [19]) | Soil treatment phytotoxicity, Cotton (cotton; [20]) | Soil treatment phytotoxicity, Cotton (cotton; [21]) | Soil treatment phytotoxicity, Cotton (cotton; [22]) | also measured
Cn1nnc(CSCc2nc(C(F)(F)F)ccc2C(=O)N(C(=O)c2ccccc2)c2nnnn2C)n1 [Compound No. 2-109, N-benzoyl-N-(1-methyl-1H-tetrazol-5-yl)-2-((((2-methyl-2H-tetrazol-5-yl)methyl)thio)methyl)-6-(trifluoromethyl)nicotinamide] | 0 | 0 | 0 | 1 | 0 | 0 | 0 | 1 | 0 | 0 | 0 | 0 | 0 | 0 | 0 | 0 | 0 | 0 | 0 | 1 | Soil treatment herbicidal activity, Bindweed (bindweed [1]): 0; Soil treatment phytotoxicity, Wheat (wheat; [16]): 0; Foliar treatment herbicidal activity, Crabgrass (crabgrass [2]): 100; pest or weed control at 50 g/ha (velvetleaf): 80%; Soil treatment herbicidal activity, Crabgrass (crabgrass [3]): 0; pest or weed control at 50 g/ha (bindweed [4]): 98%
Cn1nnc(COCc2nc(C(F)(F)F)ccc2C(=S)Nc2nnnn2C)n1 [Compound No. 2-106, N-(1-methyl-1H-tetrazol-5-yl)-2-(((2-methyl-2H-tetrazol-5-yl)methoxy)methyl)-6-(trifluoromethyl)pyridin-3-carbothioamide] | 100 | 100 | 0 | 0 | 0 | 0 | 0 | 0 | 0 | 8 | 8 | 9 | 9 | 0 | 0 | 1 | 4 | 6.5 | 5 | 8 | pest or weed control at 50 g/ha (bindweed [1]): 98%; Soil treatment phytotoxicity, Soybean (soybean; [23]): 0; Soil treatment phytotoxicity, Soybean (soybean; [24]): 0; pest or weed control at 50 g/ha (crabgrass [2]): 70%; pest or weed control at 50 g/ha (velvetleaf): 95%; Soil treatment herbicidal activity, Crabgrass (crabgrass [3]): 100; pest or weed control at 50 g/ha (bindweed [4]): 40%
Cn1nnc(COCc2nc(C(F)(F)F)ccc2C(=O)Nc2nnnn2C)n1 [Compound No. 2-59, N-(1-methyl-1H-tetrazol-5-yl)-2-(((2-methyl-2H-tetrazol-5-yl)methoxy)methyl)-6-(trifluoromethyl)nicotinamide] | 100 | 100 | 0 | 5 | 6 | 0 | 0 | 0 | 0 | 6 | 8 | 8 | 8 | 0 | 0 | 0 | 1 | 6 | 3 | 9 | pest or weed control at 50 g/ha (bindweed [1]): 90%; Soil treatment phytotoxicity, Soybean (soybean; [23]): 2; Soil treatment phytotoxicity, Soybean (soybean; [24]): 3; Soil treatment phytotoxicity, Wheat (wheat; [16]): 0; pest or weed control at 50 g/ha (crabgrass [2]): 98%; pest or weed control at 50 g/ha (velvetleaf): 98%; pest or weed control at 50 g/ha (crabgrass [3]; Digitaria sanguinalis): 98%; pest or weed control at 50 g/ha (bindweed [4]): 90%
Cn1nnc(COCc2nc(C(F)(F)F)ccc2C(=O)N(C(=O)c2ccccc2)c2nnnn2C)n1 [Compound No. 2-68, N-benzoyl-N-(1-methyl-1H-tetrazol-5-yl)-2-(((2-methyl-2H-tetrazol-5-yl)methoxy)methyl)-6-(trifluoromethyl)nicotinamide] | – | 100 | 0 | 0 | 0 | 0 | 0 | 0 | 0 | 6 | 7 | 8 | 9 | 0 | 0 | 0 | 1 | 5 | 3 | 9 | pest or weed control at 50 g/ha (barnyard grass; Echinochloa crus-galli): 98%; Soil treatment herbicidal activity, Bindweed (bindweed [1]): 0; Soil treatment phytotoxicity, Soybean (soybean; [23]): 0; Soil treatment phytotoxicity, Soybean (soybean; [24]): 0; Soil treatment phytotoxicity, Wheat (wheat; [16]): 0; pest or weed control at 50 g/ha (crabgrass [2]): 98%; Foliar treatment herbicidal activity, velvet leaf (velvetleaf): 100; Soil treatment herbicidal activity, Crabgrass (crabgrass [3]): 100; Foliar treatment herbicidal activity, Bindweed (bindweed [4]): 100
CCOC(=O)OC(C)n1nnn(C)c1=NC(=O)c1ccc(C(F)(F)F)nc1CSCc1nnn(C)n1 (stereo not drawn) [Compound No. 4-10, ethyl (1-(4-methyl-5-((2-((((2-methyl-2H-tetrazol-5-yl)methyl)thio)methyl)-6-(trifluoromethyl)nicotinoyl)imino)-4,5-dihydro-1H-tetrazol-1-yl)ethyl)carbonate] | 100 | 95BI | 0 | 1 | 3 | 0 | 0 | 0 | 0 | 0 | 0 | 0 | 0 | 0 | 0 | 0 | 0 | 1 | 0 | 2 | Soil treatment herbicidal activity, Bindweed (bindweed [1]): 40; Soil treatment phytotoxicity, Wheat (wheat; [16]): 0; Foliar treatment herbicidal activity, Crabgrass (crabgrass [2]): 100; Foliar treatment herbicidal activity, velvet leaf (velvetleaf): 100; Soil treatment herbicidal activity, Crabgrass (crabgrass [3]): 100; Foliar treatment herbicidal activity, Bindweed (bindweed [4]): 100
